Experimental data taken from US5376637A, “Pharmaceutical preparation containing vasoactive intestinal polypeptide or its analogue” (Sanwa Kagaku Kenkyusho Co., Ltd., priority 1991, dated 1994).

Legend:
arterial pressure = test: Hypotensing action in anesthetized beagle dog; format: in vivo; details: injection in femoral artery, 0.02-10 μg/kg
Experimental: In a femoral artery of anesthetized beagle dog (body weight: about 10 kg), each of VIP analogues as Test Samples was injected in a dose of 0.02-10 μg/kg and measured an arterial pressure to prepare a chart showing a relation between the dose and change in blood pressure and check an amount of dose which shall cause a reduction of 15 mmHg in blood pressure.

PCA reaction = test: Passive cutaneous anaphylaxis test (PCA reaction); format: in vivo; details: male rat
Experimental: A rat was immunized with egg-albumin suspended in aluminum hydroxide gel in a conventional manner and a blood letting was carried out to obtain an antiserum rich in IgE.
A male rat was anesthetized with ethyl ether and hairs on back were sheared to intradermally inject by 0.1 ml of the antiserum solution (diluted to 5-folds in volume) described in Item (1), at both sides with a certain distance from a medial line on the back. After 72 hours, a mixed solution of egg albumin (5 mg/kg), 2% Evans blue and a test compound (L-Leu^17 ]-VIP-Hse or pure native type VIP) or disodium cromoglycate was injected into a vein, under anesthetized with pentobarbital. After 30 minutes from an occasion of PCA reaction, the experimental animal was killed and pealed-off the skin to obtain a piece of the skin dyed with the coloring matter.
The coloring matter was extracted in accordance with the method described by Katayama ["Microbio. Immunol.", Vol. 22, No. 2, pages 89 (1987)] and an amount thereof was measured at 620 nm in wave length to calculate an inhibition of the PCA reaction.

[1] = dose 0.01 mg/kg injected into a vein
[2] = dose 0.1 mg/kg injected into a vein
[3] = dose 1.0 mg/kg injected into a vein

SMILES	amount of dose causing a reduction of 15 mmHg in blood pressure, relative value (native type VIP = 100%) (arterial pressure)	Inhibition (%) of PCA reaction (PCA reaction; [1])	Inhibition (%) of PCA reaction (PCA reaction; [2])	Inhibition (%) of PCA reaction (PCA reaction; [3])
CC[C@H](C)[C@H](NC(=O)[C@H](CO)NC(=O)[C@H](CC(N)=O)NC(=O)[C@H](CC(C)C)NC(=O)[C@H](Cc1ccc(O)cc1)NC(=O)[C@H](CCCCN)NC(=O)[C@H](CCCCN)NC(=O)[C@@H](NC(=O)[C@H](C)NC(=O)[C@H](CCSC)NC(=O)[C@H](CCC(N)=O)NC(=O)[C@H](CCCCN)NC(=O)[C@H](CCCNC(=N)N)NC(=O)[C@H](CC(C)C)NC(=O)[C@H](CCCNC(=N)N)NC(=O)[C@@H](NC(=O)[C@H](Cc1ccc(O)cc1)NC(=O)[C@H](CC(N)=O)NC(=O)[C@H](CC(=O)O)NC(=O)[C@@H](NC(=O)[C@H](Cc1ccccc1)NC(=O)[C@@H](NC(=O)[C@H](C)NC(=O)[C@H](CC(=O)O)NC(=O)[C@H](CO)NC(=O)[C@@H](N)Cc1c[nH]cn1)C(C)C)[C@@H](C)O)[C@@H](C)O)C(C)C)C(=O)N[C@@H](CC(C)C)C(=O)N[C@@H](CC(N)=O)C(N)=O [Native type VIP, vasoactive intestinal polypeptide]	100%	23%	72%	67%
O=C([O-])c1cc(=O)c2c(OCC(O)COc3cccc4oc(C(=O)[O-])cc(=O)c34)cccc2o1.[Na+].[Na+] [Disodium cromoglycate]		5%	28%	31%
